These results are taken from patent US9321993B2, “Tissue culture method for producing cartilage using trimethylamine N-oxide and chondroitinase” (The Trustees of Columbia University in the City of New York, priority 2010, dated 2016).

In assay [1] the test system is Articular chondrocytes. Nature of the assay: Equilibrium modulus of constructs digested with chondroitinase ABC, then cultured with CM or TMAO, Example 4. It is filed as cell-based, bovine. How it is done:
(§1) Articular chondrocytes were harvested from juvenile bovine wrist joints (2-4 weeks old), and digested for 8 hrs at 37° C. with Collagenase V (Sigma) to isolate chondrocytes. The cells were expanded for one passage in DMEM media containing 10% FBS, 1% PSAM, 5 ng/ml bFGF, 10 ng/ml PDGF, and 1 ng/ml of TGF-b1 (plating density=180 cells/cm^2) (see Ng et al. 2010 Tissue Eng Part A 16(3), 1041-1051). The passaged cells were seeded in 2% w/v agarose hydrogel scaffold (Type VII, Sigma Inc.) at a concentration of 30M cells/ml. Samples were cored (diameter=4 mm, thickness=2.34 mm) and cultured in chondrogenically-defined media (CM: DMEM with 0.1 uM dexamethasone, 40 mg/mL L-proline, 50 mg/mL ascorbate 2-phosphate, […] sodium pyruvate, 1×ITS+premix, 100 U/ml penicillin, and […] streptomycin and amphotericin B) supplemented with TGF-β3 for the first 14 days. Constructs grown without TMAO served as control.
(§2) The equilibrium Young's (Eγ) and dynamic modulus was determined under 10% unconfined compression. Biochemical analysis was performed to determine the GAG, hydroxyproline (OHP) and DNA content. GAG and OHP values were normalized to the DNA content and wet weight. Tested samples were fixed for histology and stained with Picosirius Red and Safranin-O to determine the distribution of collagen and GAG, respectively. Mechanical, biochemical and histological analysis was performed every two weeks (n=4/5). A two-way ANOVA (factors: culture day and treatment) was performed to evaluate the treatment for mechanical and biochemical analysis with a Bonferroni post hoc analysis.
(§3) Methods are according to Example 2 unless otherwise indicated.
Mature constructs were enzymatically digested for 48 hours at day 14 with 0.15 U/mL of chondroitinase ABC (chABC), which degrades proteoglycans, then cultured with CM or CM supplemented with 5 mM of TMAO. […] Following the digestion, constructs were cultured in either CM or CM supplemented with 5 mM TMAO. A Student's t-test was performed to compare properties of the constructs cultured in CM or CM supplemented with TMAO. Significance was set at ? =0.05.

For assay [2], the system named is Articular chondrocytes. The assay is described as follows: Biochemical content of constructs digested with chondroitinase ABC, then cultured with CM or TMAO, Example 4. It counts as cell-based, bovine. As for the experimental part: as §1
(§4) The equilibrium Young's (Eγ) and dynamic modulus was determined under 10% unconfined compression. Biochemical analysis was performed to determine the GAG, hydroxyproline (OHP) and DNA content. GAG and OHP values were normalized to the DNA content and wet weight. Tested samples were fixed for histology and stained with Picosirius Red and Safranin-O to determine the distribution of collagen and GAG, respectively. […]

Assay [3] has as its system nucleus pulposus (spine tissue) cells. Nature of the assay: GAG and OHP (collagen) content of nucleus pulposus micropellets, Example 5. It counts as cell-based. As for the experimental part:
as §2, §3
Micropellets (scaffold-free constructs comprised of aggregated cells only) consisting of nucleus pulposus (spine tissue) cells were cultured for […]. The media was supplement with either 5 mM or 50 mM TMAO. Micropellets cultured in CM were used as the control. Micropellets were cultured for 6 weeks and analyzed for biochemistry (i.e. GAG, DNA and OHP contents).

Assay [4] has as its system Articular chondrocytes. Nature of the assay: Young's and dynamic modulus after transient application of TMAO, Example 3. As to conditions: 50 mM TMAO for the first 14 days (transient); day 42. It is filed as cell-based, bovine. How it is done: as §1, §4
Assay [5] deals with Articular chondrocytes. Nature of the assay: Equilibrium Young's and dynamic modulus under 10% unconfined compression, Example 2. It is filed as cell-based, bovine. As to conditions: for mechanical properties (Young's modulus) versus control group: day 28. As for the experimental part:
as §1
(§5) Six culture medias were evaluated, with serum free media containing ascorbic acid and 10 ng/ml of TGF-b3 for the first 14 days used as the control (see Lima et al. 2007 Osteoarthritis Cartilage 15(9), 1025-1033). TMAO was added to the media at concentrations of 55 mM and 180 mM, and urea was added to the media at concentrations of 90 mM and 360 mM. The final group included a combination (combo) of TMAO (180 mM) and urea (360 mM).
as §2

Assay [6] relates to Immature bovine chondrocytes. The assay is described as follows: Stiffness (Young's modulus) of engineered constructs cultured with supplemented media, Example 1. It counts as cell-based. As to conditions: TMAO 180 or 55 mM from day 0; day 28 of culture. As for the experimental part:
Immature bovine chondrocytes were enzymatically isolated and encapsulated in 2% w/v type VII agarose (Sigma). Engineered cylindrical constructs were cultured in serum-free chondrogenic media (ITS+, ascorbic acid, dexamethasone, pen/strep) and transforming growth factor beta-3 (TGFβ3) for the first 14 days.
The culture media of some constructs were supplemented from day 0 with TMAO (180 or 55 mM), urea (360 or 90 mM) or TMAO+urea (combo: 360 mM urea and 180 mM TMAO which is the physiological ratio found in shark tissue).

The subject of assay [7] is Articular chondrocytes. The assay is described as follows: Biochemical analysis (GAG, OHP) and histology of constructs, Example 2. It counts as cell-based, bovine. As for the experimental part: as §1, §5, §2
For assay [8], the system named is Articular chondrocytes. The assay is described as follows: GAG and OHP content after transient application of TMAO, Example 3. It is filed as cell-based, bovine. How it is done: as §1, §2
Culture media was supplemented with 0 mM, 5 mM, 50 mM, 100 mM or 200 mM of TMAO for the first 14 days of culture (transient application).
Methods are according to Example 2 unless otherwise indicated. Statistical analysis included a two-way ANOVA (factors: time & concentration) with a Bonferonni post-hoc test.

[9] abbreviates: 5 mM TMAO after chABC digestion, by day 28, persisted to day 42.
Where [10] appears, read: high concentration of urea (360 mM).
Setting [11] is: lower concentrations of urea (90 mM).

The structures appear in SMILES notation.

As for `C[N+](C)(C)[O-]` [TMAO, Trimethylamine N-oxide], in assay [1] (setting [9]), the “mechanical properties relative to CM alone” value is given as “significantly greater”. The “recovery of the mechanical properties” value in assay [1] (TMAO supplement following the chABC digestion, compared to the control) is “quicker recovery”. Besides, the “EY (equilibrium Young's modulus)” value in assay [1] (day 42, CM with 5 mM TMAO after chABC digestion, CM group 115.6±38.1 kPa) came to 235.6±75.8 kPa. In addition, the “biochemical properties relative to CM alone” value in assay [2] (setting [9]) is on record as “significantly greater”. Besides, the “collagen content compared to the control” value in assay [2] (TMAO supplement following the chABC digestion) is given as “increases the collagen content”. The “GAG production of the micropellets” value in assay [3] (5 mM or 50 mM TMAO, normalized by DNA content at day 42 (FIG. 9A)) is listed as “graded effect”. In assay [3] (CM supplemented with TMAO (5 mM or 50 mM), normalized by DNA content at day 42 (FIG. 9B)), the “increase in collagen production” value was determined as 50%. In assay [4], the “Young's modulus versus control group” value is reported as “significantly greater than the control group” and the “dynamic modulus versus control group” value is “significantly greater than the control group”. The “mechanical properties (Young's modulus) versus control group” value in assay [5] (55 mM TMAO) is recorded as 2 ×. The “mechanical properties (Young's modulus) versus control group” value in assay [5] (180 mM TMAO) stood at 2 ×. Besides, the “Young's modulus (stiffness) versus control group” value in assay [6] is given as “two-fold”. Moreover, in assay [7] (55 mM TMAO, day 28), the “normalized GAG content versus control” value is “significantly greater than control” and the “normalized collagen content versus control” value was “significantly greater than control”. The “histology: distribution of GAG and collagen throughout the thickness of the construct” value in assay [7] (55 mM TMAO, day 28, Picosirius Red and Safranin-O) was “even distribution”. For the same compound, the “OHP content greater than the control values” in assay [8] (100 mM TMAO, day 28) was “approximately 50%”. For the same compound, the “GAG content (normalized to wet weight) greater than control values” in assay [8] (TMAO 5 mM, 50 mM and 100 mM, day 42) was “up to 17%”. The “OHP content (normalized to the wet weight) versus control” value in assay [8] (TMAO groups, day 28, reaching significance for 50 mM and 100 mM) is “greater than the control”.
Regarding `NC(N)=O` [urea, reference compound], the “mechanical properties versus day 0” value in assay [5] (setting [10]) is given as “did not increase from day 0”. Further, the “effect on mechanical properties” value in assay [5] (setting [11]) is given as “did not have adverse effects”. In addition, in assay [7] (setting [10]), the “biochemical properties versus day 0” value is “did not increase from day 0”. Also, the “effect on biochemical properties” value in assay [7] (setting [11]) is “did not have adverse effects”.
